Source: patent US20240199577A1, “ACORAMIDIS ANALOGS FOR STABILIZING TRANSTHYRETIN AND INHIBITING TRANSTHYRETIN MISFOLDING” (Protego Biopharma, Inc., priority 2021, published 2024)
Values belong to the compound of their own block, whether it stands above or below them.

Experiments:
[1] = Pharmacokinetic study in rat (plasma, CSF, brain); format: in vivo; conditions: male, Sprague-Dawley, oral dose of 40 mg/kg
Text: For a compound provided herein to be an effective TTR stabilizer drug to halt and/or prevent the ocular and cerebral TTR amyloid deposition TTR amyloidosis, it has to be able to penetrate into the brain and CSF (surrogate for eye penetration) and deliver a sufficient amount of TTR stabilizer to stop TTR dissociation. A pharmacokinetic study in rat is used to evaluate the compounds. Male Sprague-Dawley (SD) rats (200-220 g weight) are acclimated for at least 2 to 3 days before being placed on study. All animals will have access to certified rodent diet and water at libitum. […] For IV dosing, the test compound is administered via tail vein or indwelling cannula. For oral dosing, the test compound is administered by oral gavage. Blood and CSF samples are collected at selected timepoints. Blood collection is performed from saphenous vein or tail vein of each animal into polypropylene tubes at each timepoint. […] The weight of brain samples is recorded. […] Using a LC-MSMS method for the quantitative determination of test compound in biological matrixes, amount of test compound and active agent are measured in plasma and CSF at selected timepoints post-dosing and in brain at 24 hrs post dosing. Plasma concentration versus time data is analyzed by non-compartmental approaches using the Phoenix WinNonlin 6.3 software program. […]

[2] = In vitro rat liver S9 stability assay (formation of AG10); format: in vitro ADME; conditions: rat liver S9, 1 μM test compound, 37° C.
Method: The test compound was added to liver S9 and incubated at 37° C. in a water bath at a concentration of 1 μM. At each time point (0, 5, 10, 20, 30 and 60 min), stop solution (tolbutamide plus labetalol) was added to precipitate protein and mixed thoroughly. After centrifugation, an aliquot of supernatant was analyzed by LC-MS/MS. The percentage of formation of active agent was calculated at each time point.

[3] = tafamidis-treated FAP patients, cited from earlier work

- Kp ([1]; CSF and plasma, over 24 hrs, read-out: CSF to plasma ratio over 24 hrs): ~0.009
- Kp at 24 h ([1]; brain and plasma, at 24 hrs, read-out: brain to plasma ratio at 24 hrs): ~0.008
Structure (SMILES): Cc1n[nH]c(C)c1CCCOc1cc(C(=O)O)ccc1F [AG10, acoramidis]

- Formation of AG10 at 60 min [2]: A (A is <25%)
Structure (SMILES): Cc1n[nH]c(C)c1CCCOc1cc(C(=O)OC2CCN(C)C2)ccc1F (centres unmarked) [Compound 2, 1-methylpyrrolidin-3-yl 3-(3-(3,5-dimethyl-1H-pyrazol-4-yl)propoxy)-4-fluorobenzoate]

Structure (SMILES): O=C(O)c1ccc2nc(-c3cc(Cl)cc(Cl)c3)oc2c1 [tafamidis]
- tafamidis level in CSF relative to that in plasma ([3]; CSF): 2%
- tafamidis/TTR stoechimetric ratio in CSF ([3]; CSF): ≤ 1
- tafamidis/TTR stoechimetric ratio in plasma ([3]; plasma): 2.4
- tafamidis level in vitreous relative to that in plasma ([3]; vitreous): 0.5%
- tafamidis/TTR stoechimetric ratio in vitreous ([3]; vitreous): ≤ 1
